Test results published in patent US10869900B2, “Composition and products comprising senescent cells for use in tissue regeneration” (QRSkin GmbH, priority 2015, dated 2020).

System: Human primary keratinocyte BKB10002 cells
Test: Senescence induction by surfactant, β-Gal staining
Format: cell-based
Settings: 2 uM NP40 for 14 days, EpiLife medium+S7 supplement, medium change every second day
Procedure: Human primary keratinocyte BKB10002 cells were treated with the surfactant NP40 in order to induce senescence. Cells were grown in EpiLife medium+S7 supplement without (control) or with 2 uM NP40 for 14 days with a medium change every second day. […] Protein concentrations in the supernatants of the cell cultures were quantified using the Bio-Plex® Multiplex Immunoassays or ELISA kits from BIO-RAD.

NP40
cells showing a positive β-Gal staining: 11%
